Test results taken from patent US20240166652A1, “MODULATORS OF THE INTEGRATED STRESS PATHWAY” (Calico Life Sciences LLC, priority 2017, published 2024).

Tested on: ATF4 luciferase reporter in HEK293T cells
Test: ATF4-Luc assay (ATF4 luciferase reporter, tunicamycin-treated HEK293T cells)
Type: cell-based, human
Details: Homo sapiens, HEK-293T; HEK293T cells carrying the ATF4 luciferase reporter, 1 μg/mL tunicamycin, 7 hours

Q: For `O=C(COc1ccc(Cl)c(F)c1)NC12CC(NC(=O)[C@@H](O)c3ccc(Cl)cc3)(C1)C2` [Compound 307, (2S)—N-{3-[2-(4-chloro-3-fluorophenoxy)acetamido]bicyclo[1.1.1]pentan-1-yl}-2-(4-chlorophenyl)-2-hydroxyacetamide], which EC50 is on record?
A: Its EC50 is over 2000 nM.

Q: How did the EC50 turn out when `O=C(COc1ccc(Cl)c(F)c1)NC12CCC(NC(=O)COc3ccnc(C(F)(F)F)c3)(CC1)C(O)C2` (stereo not drawn) [Compound 308, 2-(4-chloro-3-fluorophenoxy)-N-[3-hydroxy-4-(2-{[2-(trifluoromethyl)pyridin-4-yl]oxy}acetamido)bicyclo[2.2.2]octan-1-yl]acetamide] was run?
A: Its EC50 is under 10 nM.

Q: How did the EC50 turn out when `O=C(COc1ccc(Cl)c(F)c1)NC12CC(NC(=O)COc3ccnn(CC(F)(F)F)c3=O)(C1)C2` [Compound 309, 2-(4-chloro-3-fluorophenoxy)-N-[3-(2-{[3-oxo-2-(2,2,2-trifluoroethyl)-2,3-dihydropyridazin-4-yl]oxy}acetamido)bicyclo[1.1.1]pentan-1-yl]acetamide] was run?
A: The EC50 was 50 to 250 nM.

Q: How did the EC50 turn out when `O=C(COc1ccc(Cl)c(F)c1)NC12CC(NC(=O)COc3cnn(CC(F)(F)F)c(=O)c3)(C1)C2` [Compound 310, 2-(4-chloro-3-fluorophenoxy)-N-[3-(2-{[6-oxo-1-(2,2,2-trifluoroethyl)-1,6-dihydropyridazin-4-yl]oxy}acetamido)bicyclo[1.1.1]pentan-1-yl]acetamide] was run?
A: The EC50 was 50 to 250 nM.

Q: How did the EC50 turn out when `O=C(COc1ccc(Cl)c(F)c1)NC12CCC(NC(=O)COc3ccc(C4CC4)nc3)(CC1)C(O)C2` (stereo not drawn) [Compound 311, 2-(4-chloro-3-fluorophenoxy)-N-(4-{2-[(6-cyclopropylpyridin-3-yl)oxy]acetamido}-3-hydroxybicyclo[2.2.2]octan-1-yl)acetamide] was run?
A: Its EC50 is under 10 nM.

Q: With `O=C(COc1ccc(Cl)c(F)c1)NC12CC(NC(=O)C(=O)Cc3ccc(Cl)cc3)(C1)C2` [Compound 312, N-{3-[2-(4-chloro-3-fluorophenoxy)acetamido]bicyclo[1.1.1]pentan-1-yl}-3-(4-chlorophenyl)-2-oxopropanamide] as the molecule, how does the EC50 read?
A: Its EC50 is 50 to 250 nM.

Q: Which EC50 does the source give for `O=C(COc1ccc(C(F)(F)F)nc1)NC12CCC(NC(=O)COc3ccc(Cl)c(F)c3)(CC1)C(O)C2` (stereo not drawn) [Compound 313, 2-(4-chloro-3-fluorophenoxy)-N-[2-hydroxy-4-(2-{[6-(trifluoromethyl)pyridin-3-yl]oxy}acetamido)bicyclo[2.2.2]octan-1-yl]acetamide] here?
A: Its EC50 is under 10 nM.

Q: Which EC50 does the source give for `COc1ccc(CNC23CCC(NC(=O)COc4ccc(Cl)c(F)c4)(CC2)C(O)C3)cc1` (stereo not drawn) [Compound 314, 2-(4-chloro-3-fluorophenoxy)-N-(2-hydroxy-4-{[(4-methoxyphenyl)methyl]amino}bicyclo[2.2.2]octan-1-yl)acetamide] here?
A: The EC50 was over 2000 nM.

Q: With `O=C(COc1ccc(Cl)c(F)c1)NC12CC(NC(=O)[C@H](O)c3ccc(Cl)cc3)(C1)C2` [Compound 315, (2R)—N-{3-[2-(4-chloro-3-fluorophenoxy)acetamido]bicyclo[1.1.1]pentan-1-yl}-2-(4-chlorophenyl)-2-hydroxyacetamide] as the molecule, how does the EC50 read?
A: The EC50 was 500 to 2000 nM.

Q: For `O=C(COc1ccc(Cl)c(F)c1)NC12CCC(NC(=O)COc3ccnn(CC(F)(F)F)c3=O)(CC1)C(=O)C2` [Compound 316, 2-(4-chloro-3-fluorophenoxy)-N-[3-oxo-4-(2-{[3-oxo-2-(2,2,2-trifluoroethyl)-2,3-dihydropyridazin-4-yl]oxy}acetamido)bicyclo[2.2.2]octan-1-yl]acetamide], which EC50 is on record?
A: Its EC50 is 500 to 2000 nM.

Q: With `O=C(COc1ccc(Cl)c(F)c1)NC12CCC(NC(=O)COc3cnn(CC(F)(F)F)c(=O)c3)(CC1)C(=O)C2` [Compound 317, 2-(4-chloro-3-fluorophenoxy)-N-[3-oxo-4-(2-{[6-oxo-1-(2,2,2-trifluoroethyl)-1,6-dihydropyridazin-4-yl]oxy}acetamido)bicyclo[2.2.2]octan-1-yl]acetamide] as the molecule, how does the EC50 read?
A: The EC50 was over 2000 nM.

Q: Which EC50 does the source give for `CN(C)c1ccc(CC(=O)NC23CCC(NC(=O)COc4ccc(Cl)c(F)c4)(CC2)CC3O)cc1` (stereo not drawn) [Compound 320, 2-(4-chloro-3-fluorophenoxy)-N-(4-{2-[4-(dimethylamino)phenyl]acetamido}-3-hydroxybicyclo[2.2.2]octan-1-yl)acetamide] here?
A: Its EC50 is 500 to 2000 nM.

Q: How did the EC50 turn out when `O=C(COc1ccc(Cl)c(F)c1)NC12CCC(NC(=O)Cc3cccc(C(F)(F)F)c3)(CC1)C(O)C2` (stereo not drawn) [Compound 321, 2-(4-chloro-3-fluorophenoxy)-N-(3-hydroxy-4-{2-[3-(trifluoromethyl)phenyl]acetamido}bicyclo[2.2.2]octan-1-yl)acetamide] was run?
A: Its EC50 is 500 to 2000 nM.

Q: How did the EC50 turn out when `O=C(COc1ccc(Cl)c(F)c1)NC12CCC(NC(=O)Cc3ccc(C(F)(F)F)cc3)(CC1)C(O)C2` (stereo not drawn) [Compound 322, 2-(4-chloro-3-fluorophenoxy)-N-(3-hydroxy-4-{2-[4-(trifluoromethyl)phenyl]acetamido}bicyclo[2.2.2]octan-1-yl)acetamide] was run?
A: Its EC50 is 50 to 250 nM.

Q: Which EC50 does the source give for `O=C(COc1ccc(Cl)c(F)c1)NC12CCC(NC(=O)Cc3ccc4c(c3)OCO4)(CC1)C(O)C2` (stereo not drawn) [Compound 323, 2-(2H-1,3-benzodioxol-5-yl)-N-{4-[2-(4-chloro-3-fluorophenoxy)acetamido]-2-hydroxybicyclo[2.2.2]octan-1-yl}acetamide] here?
A: The EC50 was over 2000 nM.

Q: Which EC50 does the source give for `O=C(COc1ccc(Cl)c(F)c1)NC12CCC(NC(=O)Cc3cccnc3)(CC1)C(O)C2` (stereo not drawn) [Compound 324, 2-(4-chloro-3-fluorophenoxy)-N-{3-hydroxy-4-[2-(pyridin-3-yl)acetamido]bicyclo[2.2.2]octan-1-yl}acetamide] here?
A: Its EC50 is over 2000 nM.

Q: How did the EC50 turn out when `CS(=O)(=O)c1ccc(CC(=O)NC23CCC(NC(=O)COc4ccc(Cl)c(F)c4)(CC2)CC3O)cc1` (stereo not drawn) [Compound 325, 2-(4-chloro-3-fluorophenoxy)-N-(3-hydroxy-4-{2-[4-(methanesulfonyl)phenyl]acetamido}bicyclo[2.2.2]octan-1-yl)acetamide] was run?
A: Its EC50 is over 2000 nM.

Q: With `O=C(COc1ccc(Cl)c(F)c1)NC12CCC(NC(=O)Cc3ccc(OC(F)(F)F)cc3)(CC1)C(O)C2` (stereo not drawn) [Compound 326, 2-(4-chloro-3-fluorophenoxy)-N-(3-hydroxy-4-{2-[4-(trifluoromethoxy)phenyl]acetamido}bicyclo[2.2.2]octan-1-yl)acetamide] as the molecule, how does the EC50 read?
A: The EC50 was 50 to 250 nM.

Q: Which EC50 does the source give for `O=C(COc1ccc(Cl)c(F)c1)NC12CCC(NC(=O)Cc3cccc(OC(F)(F)F)c3)(CC1)C(O)C2` (stereo not drawn) [Compound 327, 2-(4-chloro-3-fluorophenoxy)-N-(3-hydroxy-4-{2-[3-(trifluoromethoxy)phenyl]acetamido}bicyclo[2.2.2]octan-1-yl)acetamide] here?
A: The EC50 was over 2000 nM.

Q: `O=C(COc1ccc(Cl)c(F)c1)NC12CCC(NC(=O)Cc3ccncc3)(CC1)C(O)C2` (stereo not drawn) [Compound 328, 2-(4-chloro-3-fluorophenoxy)-N-{3-hydroxy-4-[2-(pyridin-4-yl)acetamido]bicyclo[2.2.2]octan-1-yl}acetamide] was tested. Which EC50 did it give?
A: Its EC50 is over 2000 nM.

Q: With `O=C(COc1ccc(F)c(F)c1)NC12CCC(NC(=O)COc3ccc(Cl)c(F)c3)(CC1)C(O)C2` (stereo not drawn) [Compound 329, 2-(4-chloro-3-fluorophenoxy)-N-{4-[2-(3,4-difluorophenoxy)acetamido]-2-hydroxybicyclo[2.2.2]octan-1-yl}acetamide] as the molecule, how does the EC50 read?
A: The EC50 was under 10 nM.

Q: How did the EC50 turn out when `O=C(COc1ccc(F)cc1)NC12CCC(NC(=O)COc3ccc(Cl)c(F)c3)(CC1)C(O)C2` (stereo not drawn) [Compound 330, 2-(4-chloro-3-fluorophenoxy)-N-{4-[2-(4-fluorophenoxy)acetamido]-2-hydroxybicyclo[2.2.2]octan-1-yl}acetamide] was run?
A: Its EC50 is under 10 nM.

Q: For `O=C(COc1ccc(Cl)c(F)c1)NC12CCC(NCCOc3ccc(F)cc3)(CC1)C(O)C2` (stereo not drawn) [Compound 331, 2-(4-chloro-3-fluorophenoxy)-N-(4-{[2-(4-fluorophenoxy)ethyl]amino}-3-hydroxybicyclo[2.2.2]octan-1-yl)acetamide], which EC50 is on record?
A: The EC50 was under 10 nM.

Q: For `O=C(COc1ccc(S(F)(F)(F)(F)F)nc1)NC12CC(NC(=O)COc3ccc(Cl)c(F)c3)(C1)C2` [Compound 332, 2-(4-chloro-3-fluorophenoxy)-N-[3-(2-{[6-(pentafluoro-X 6-sulfanyl)pyridin-3-yl]oxy}acetamido)bicyclo[1.1.1]pentan-1-yl]acetamide], which EC50 is on record?
A: Its EC50 is 10 to 50 nM.

Q: Which EC50 does the source give for `O=C(COc1ccc(Cl)c(F)c1)NC12CCC(NC(=O)COc3ccnn(CC(F)(F)F)c3=O)(CC1)C(O)C2` (stereo not drawn) [Compound 333, 2-(4-chloro-3-fluorophenoxy)-N-[3-hydroxy-4-(2-{[3-oxo-2-(2,2,2-trifluoroethyl)-2,3-dihydropyridazin-4-yl]oxy}acetamido)bicyclo[2.2.2]octan-1-yl]acetamide] here?
A: The EC50 was 250 to 500 nM.

Q: How did the EC50 turn out when `O=C(COc1ccc(Cl)c(F)c1)NC12CCC(NC(=O)COc3cnn(CC(F)(F)F)c(=O)c3)(CC1)C(O)C2` (stereo not drawn) [Compound 334, 2-(4-chloro-3-fluorophenoxy)-N-[3-hydroxy-4-(2-{[6-oxo-1-(2,2,2-trifluoroethyl)-1,6-dihydropyridazin-4-yl]oxy}acetamido)bicyclo[2.2.2]octan-1-yl]acetamide] was run?
A: Its EC50 is 500 to 2000 nM.

Q: With `O=C(COc1ccc(Cl)c(F)c1)NC12CCC(NCCOc3ccc(Cl)c(Cl)c3)(CC1)C(O)C2` (stereo not drawn) [Compound 335, 2-(4-chloro-3-fluorophenoxy)-N-(4-{[2-(3,4-dichlorophenoxy)ethyl]amino}-3-hydroxybicyclo[2.2.2]octan-1-yl)acetamide] as the molecule, how does the EC50 read?
A: Its EC50 is under 10 nM.

Q: Which EC50 does the source give for `O=C(COc1ccc(Cl)c(F)c1)NC12CCC(NCCOc3ccc(Cl)cc3)(CC1)C(O)C2` (stereo not drawn) [Compound 336, 2-(4-chloro-3-fluorophenoxy)-N-(4-{[2-(4-chlorophenoxy)ethyl]amino}-3-hydroxybicyclo[2.2.2]octan-1-yl)acetamide] here?
A: Its EC50 is under 10 nM.

Q: `CC1(O)CC2(NC(=O)COc3ccc(Cl)c(F)c3)CCC1(NC(=O)COc1ccc(C(F)(F)F)nc1)CC2` (stereo not drawn) [Compound 338, 2-(4-chloro-3-fluorophenoxy)-N-[3-hydroxy-3-methyl-4-(2-{[6-(trifluoromethyl)pyridin-3-yl]oxy}acetamido)bicyclo[2.2.2]octan-1-yl]acetamide] was tested. Which EC50 did it give?
A: Its EC50 is 10 to 50 nM.

Q: Which EC50 does the source give for `CC1(O)CC2(NC(=O)COc3ccc(Cl)c(F)c3)CCC1(NC(=O)COc1ccc(Cl)c(F)c1)CC2` (stereo not drawn) [Compound 339, N,N′-(2-hydroxy-2-methylbicyclo[2.2.2]octane-1,4-diyl)bis[2-(4-chloro-3-fluorophenoxy)acetamide]] here?
A: The EC50 was under 10 nM.
